# Tested on: DILI patient-derived organoid (liver organoid from iPS cells 16-24)
# Method: (§1) Each of iPS cells derived from human healthy person (1383D2; Kyoto University iPS Research Institute) and iPS cells derived from patients with drug-induced liver injury (16-24; Yokohama City University) were cultured at 5% CO2 and 37° C. for 3 days in a medium obtained by adding 1% B-27 Supplements (GIBCO), BMP4 (25 ng/ml) and CHIR99021 (8 μM) to DMEM/F-12 (Gibco) (10 ml), to induce mesodermal cells.
# Each of iPS cells derived from human healthy person (1383D2; Kyoto University iPS Research Institute) and iPS cells derived from patients with drug-induced liver injury (16-24; Yokohama City University) were cultured at 5% CO2 and 37° C. for 5 days in a medium obtained by adding Wnt3a (50 ng/mL) and activin A (100 ng/ml) to a basal medium RPMI (FUJIFILM Corporation) (2 ml), to induce endodermal progenitor cells.
# as §1, with “μM) to a basal mixed medium DMEM/F-12 (Gibco)” for “μM) to DMEM/F-12 (Gibco)”, “induce mesodermal progenitor cells. […]” for “induce mesodermal cells.”, “progenitor cells. […]” for “mesodermal cells.”
smiles,measurement,value
"CC1(C)S[C@@H]2[C@H](NC(=O)[C@H](N)c3ccc(O)cc3)C(=O)N2[C@H]1C(=O)O [Amoxicillin trihydrate, amoxicillin trihydrate]","Toxicity to liver organoid produced using cells derived from a DILI patient, co-cultured with blood cells (result in words)",DILI was not observed
